Measurements taken from ChEMBL document CHEMBL5724696, “Autophagy assay results for EUbOPEN Chemogenomics Library” (2024).

Legend:
U2OS [1] = assay: (§1) Here: values are normalized to the positive (DMSO; basel flux = defined as 100% suppression) and negative (250nM Torin1; mTOR inhibitor; maximal inducer of autophagy defined as 0% suppression) control compounds and represented as % of ER-phagy suppression. […] The impact of autophagy induction on cells is complex and depends on the affected target. […] Of note, treatment concentrations may be sub-optimal for specific compounds, leading to false negative annotations.; assay type: functional, Homo sapiens; conditions: Compound Concentration 1 uM, Culturing Media DMEM, 1 % Penicillin/Streptomycin, 10% Fetal bovin serum Add-On: blasticidin, Screening Media Control DMEM, 10% Fetal bovin serum Add-On: 1 µg/ml Doxycyclin, Screening Media Samples DMEM, 10% Fetal bovin serum Add-On: 1 µg/ml Doxycyclin 250nM Torin1
U2OS [2] = assay: as §1; assay type: functional, Homo sapiens; conditions: Compound Concentration 1 uM, Culturing Media DMEM, 1 % Penicillin/Streptomycin, 10% Fetal bovin serum Add-On: blasticidin, Screening Media Control DMEM, 10% Fetal bovin serum Add-On: 1 µg/ml Doxycyclin, Screening Media Samples DMEM, 10% Fetal bovin serum Add-On: 1 µg/ml Doxycyclin 250nM Torin1; remark: listed apart in the source

Row | Compound | ER-phagy suppression (U2OS [1]; Timepoint 12 hours) [%] | ER-phagy suppression (U2OS [1]; Timepoint 24 hours) [%] | ER-phagy suppression (U2OS [1]; Timepoint 36 hours) [%] | ER-phagy suppression (U2OS [1]; Timepoint 60 hours) [%] | ER-phagy suppression (U2OS [2]; Timepoint 12 hours) [%] | ER-phagy suppression (U2OS [2]; Timepoint 24 hours) [%] | ER-phagy suppression (U2OS [2]; Timepoint 36 hours) [%] | ER-phagy suppression (U2OS [2]; Timepoint 54 hours) [%]
1 | O=C(O)c1ccc2c3c1cccc3c(=O)n1c3ccccc3nc21 | -11.121 | -24.1866 | -20.6591 | -29.8702 | -10.0258 | -24.8466 | -33.5835 | -29.9152
2 | Cc1c(NC(=O)c2ccc(C(C)(C)C)cc2)cccc1-c1cn(C)c(=O)c(Nc2ccc(C(=O)N3CCOCC3)cc2)n1 | -0.6222 | -11.9993 | -14.8569 | -20.2284 | -19.8949 | -28.4876 | -32.1203 | -24.8408
3 | Cc1ccc(-c2ccc3c(ccc4sc5c(c43)NC[C@@H](C)NC5=O)n2)cn1 | 5.336 | 5.52 | 7.693 | 5.525 | -17.2516 | -0.875 | 6.096 | 19.149
4 | CCOC(=O)c1c(/C(C#N)=C\N)c2ccc(Cl)c(Cl)c2n1C | -5.524 | -4.715 | 1.333 | -3.592 | -23.9161 | -42.4331 | -44.7519 | -41.2832
5 | CNc1nc(-c2ccc3c(N)n[nH]c3c2)cc(N2C[C@@H](C(=O)NC3CCCCC3)CC[C@H]2C)n1 | 0.4494 | -26.9041 | -20.7872 | -21.6855 | -64.3148 | -57.2907 | -47.7488 | -36.1372
6 | Cc1ccc(NC(=O)Nc2cc(C(F)(F)F)ccc2F)cc1Nc1ccc2c(c1)NC(=O)/C2=C\c1ccc[nH]1 | 18.743 | -2.579 | -6.116 | -1.261 | -7.664 | -22.8744 | -24.0512 | -22.1975
7 | CCc1cncnc1N1CCN(Cc2nc3cc(C(F)(F)F)ccc3[nH]2)CC1 | -3.169 | -14.0511 | -20.9455 | -35.5971 | -12.878 | -26.39 | -24.8445 | -23.0115
8 | OCCn1cc(-c2ccc3c(c2)CCC3=NO)c(-c2ccncc2)n1 | 13.4101 | 0.6971 | -0.91 | 0.4621 | -23.6151 | -59.1263 | -53.5237 | -39.7477
9 | CN(c1ncccc1CNc1nc(Nc2ccc3c(c2)CC(=O)N3)ncc1C(F)(F)F)S(C)(=O)=O.O=S(=O)(O)c1ccccc1 | -10.0797 | -6.87 | 0.4518 | 0.1589 | 6.672 | -24.1053 | -34.2095 | -20.8605
10 | CCCCNc1ncc(-c2ccc(CN3CCOCC3)cn2)c(N[C@H]2CC[C@H](O)CC2)n1 | -8.957 | -7.3145 | 4.583 | 12.8118 | -5.509 | -21.7145 | -31.345 | -19.8135
11 | CCn1c(=O)c(-c2ccc(Cl)cc2Cl)cc2cnc(Nc3ccc(N4CCNCC4)c(F)c3)nc21 | 36.4408 | 60.1254 | 62.8115 | 76.8114 | -49.4743 | -41.9787 | -21.5083 | -6.286
12 | CC(C)NC(=O)N1CC[C@H](NC2=Nc3cc(F)ccc3N(CC(F)F)c3ccc(Cl)cc32)C1 | -0.3952 | -5.126 | -3.1 | -4.344 | -34.3378 | -42.165 | -48.481 | -44.6081
13 | Cc1ccc(C(=O)Nc2cccc(C(F)(F)F)c2)cc1Nc1nc(-c2cccnc2)nc2c1cnn2C | 26.4951 | 22.3835 | 22.4378 | 22.9955 | 20.046 | 2.016 | -6.3 | -2.2204
14 | CC1=C(C(=O)Nc2cc3cn[nH]c3cc2F)C(c2ccc(C(F)(F)F)cc2)CC(=O)N1 (stereo unspecified) | -7.959 | -2.49 | 15.1812 | 22.9185 | -59.3717 | -37.062 | 5.409 | 47.7199
15 | CCOc1cn(-c2ccc(F)cc2C)nc1C(=O)Nc1ccc(Oc2ccnc3cc(OC)c(OC)cc23)c(F)c1 | 7.441 | -3.201 | 13.658 | 1.882 | 8.613 | -11.0646 | -14.9155 | -19.0742
16 | Cc1c(C(=O)Nc2ccc(Oc3ccnc4[nH]cc(-c5ccccc5)c34)c(F)c2)c(=O)n(-c2ccc(F)cc2)n1C | 11.6236 | -15.4691 | -3.07 | -1.46 | 3.929 | -12.4432 | -17.5101 | -17.0737
17 | CN(C)C(=O)Cn1cc(-c2ccc(-c3cncc4ccccc34)cc2)cn1 | -8.903 | 10.8163 | 25.7126 | 36.3142 | 5.324 | 37.0971 | 57.9552 | 74.4134
18 | CN(C)C(=O)Cn1cc(-c2ccc(-c3nnc4ccccn34)cc2)cn1 | -17.2141 | -21.3564 | -13.477 | -20.2221 | -13.7824 | -23.4109 | -24.5481 | -15.5458
19 | CN(C)C(=O)N1CC[C@H](NC2=Nc3cc(F)ccc3N(CC(F)F)c3ccc(Cl)cc32)C1 | -14.7963 | -22.2791 | -19.1413 | -31.4062 | -18.0128 | -30.8641 | -36.8246 | -25.6155
20 | Cl.NC(=O)c1cnc(N[C@@H]2CCCC[C@@H]2N)nc1Nc1cccc(-n2nccn2)c1 | 9.977 | 25.4122 | 28.6706 | 31.7231 | 27.5492 | 18.4362 | 21.4313 | 34.0409
21 | COc1cc(C2c3cc4c(cc3[C@H](O)[C@H]3COC(=O)[C@@H]23)OCO4)cc(OC)c1OC (stereo partly specified) | 13.7164 | -2.596 | 7.675 | 9.356 | 19.9758 | 6.76 | 5.125 | 8.089
22 | O=C1Nc2ccc(I)cc2/C1=C/c1cc(Br)c(O)c(Br)c1 | -13.4504 | -24.7924 | -11.7006 | -13.1814 | -35.4464 | -41.788 | -41.037 | -30.605
